Data reported in US20030190603A1, “Method and system for predicting therapeutic agent resistance and for defining the genetic basis of drug resistance using neural networks” (priority 2003, published 2003).
Like-named read-outs stand apart in the source and are kept apart here.

Experiments:
[1] = system: patient's recombinant virus (HIV-1); assay: Phenotypic susceptibility, MT-4 cell viral cytopathic effect protection assay (fold resistance vs wild-type control virus); type: cell-based
Description: Phenotypic susceptibility was determined using a MT-4 cell viral cytopathic effect protection assay. See, e.g., Kashiwase et al., Chemotherapy 45(1):48-55 (1999), expressly incorporated herein by reference; Larder et al., Antimicrob. Agents Chemother. 43(8): 1961-1967 (1999). […] The procedure is also described in WO 97/27480.

HIV-1 [2] = settings: cited from earlier work
HIV-1 [3] = settings: drug - cut-off, Larder & Harrigan AIDS 2000; cited from earlier work
[4] = HIV-1 mutation 333D/E in addition to M184V

Nc1ccn([C@@H]2CS[C@H](CO)O2)c(=O)n1 [3TC]
Drug resistance level (from the phenotypic data) ([1]; test sample 1): S/S (A fold resistance of less than or equal to 4 is considered to be)
Drug resistance level (from the phenotypic data) ([1]; test sample 2): R/R (if the value is greater than 10, it is considered to be)
Drug resistance level (from the phenotypic data) ([1]; test sample 3): R/R (if the value is greater than 10, it is considered to be)
Drug resistance level (from the phenotypic data) ([1]; test sample 4): S/S (A fold resistance of less than or equal to 4 is considered to be)
Drug resistance level (from the phenotypic data) ([1]; test sample 5): R/R (if the value is greater than 10, it is considered to be)
Drug resistance level (from the phenotypic data) ([1]; test sample 6): R (if the value is greater than 10, it is considered to be)
Drug resistance level (from the phenotypic data) ([1]; test sample 7): R/R (if the value is greater than 10, it is considered to be)
Drug resistance level (from the phenotypic data) ([1]; test sample 8): R/R (if the value is greater than 10, it is considered to be)
Drug resistance level (from the phenotypic data) ([1]; test sample 9): R/R (if the value is greater than 10, it is considered to be)
Drug resistance level (from the phenotypic data) ([1]; test sample 10): S/S (A fold resistance of less than or equal to 4 is considered to be)
Effect of mutation on resistance (HIV-1 [2]; [4]): dual AZT/3TC resistance
Effect of mutation on resistance (HIV-1 [2]; HIV-1 mutation M184V): confers resistance
Biological cut-off (fold resistance) (HIV-1 [3]): 4.5

Nc1nc(NC2CC2)c2ncn([C@H]3C=C[C@@H](CO)C3)c2n1 [1592 U89]
Drug resistance level (from the phenotypic data) ([1]; test sample 1): S/S (A fold resistance of less than or equal to 4 is considered to be)
Drug resistance level (from the phenotypic data) ([1]; test sample 2): S (A fold resistance of less than or equal to 4 is considered to be)
Drug resistance level (from the phenotypic data) ([1]; test sample 3): S/S (A fold resistance of less than or equal to 4 is considered to be)
Drug resistance level (from the phenotypic data) ([1]; test sample 4): S/S (A fold resistance of less than or equal to 4 is considered to be)
Drug resistance level (from the phenotypic data) ([1]; test sample 5): S/S (A fold resistance of less than or equal to 4 is considered to be)
Drug resistance level (from the phenotypic data) ([1]; test sample 6): I (greater than 4 and less than 10 is considered to be)
Drug resistance level (from the phenotypic data) ([1]; test sample 7): S/S (A fold resistance of less than or equal to 4 is considered to be)
Drug resistance level (from the phenotypic data) ([1]; test sample 8): I (greater than 4 and less than 10 is considered to be)
Drug resistance level (from the phenotypic data) ([1]; test sample 9): S/S (A fold resistance of less than or equal to 4 is considered to be)
Drug resistance level (from the phenotypic data) ([1]; test sample 10): S/S (A fold resistance of less than or equal to 4 is considered to be)
Biological cut-off (fold resistance) (HIV-1 [3]): 3.0

Cc1cn([C@H]2C[C@H](N=[N+]=[N-])[C@@H](CO)O2)c(=O)[nH]c1=O [AZT, 3′-azido-3′-deoxythymidine]
Effect of mutation on resistance (HIV-1 [2]; [4]): dual AZT/3TC resistance
Effect of mutation on resistance (HIV-1 [2]; HIV-1 mutation M184V): reverses AZT resistance
Biological cut-off (fold resistance) (HIV-1 [3]): 4.0

Cc1cn([C@H]2C=C[C@@H](CO)O2)c(=O)[nH]c1=O [D4T]
Mean fold change of IC50 ([1]; 92 of 188 test samples with d4T IC50<3-fold): 1.1 fold
Mean fold change of IC50 ([1]; 96 of 188 test samples with d4T IC50>3-fold): 7.7 fold
Mean fold change of IC50 ([1]; 1040 of 2286 samples with d4T IC50<3-fold): 1.2 fold
Mean fold change of IC50 ([1]; 1246 of 2286 samples with d4T IC50>3-fold): 9.0 fold
Biological cut-off (fold resistance) (HIV-1 [3]): 1.75

Nc1ccn([C@H]2CC[C@@H](CO)O2)c(=O)n1 [DDC]
Biological cut-off (fold resistance) (HIV-1 [3]): 2.0

OC[C@@H]1CC[C@H](n2cnc3c(O)ncnc32)O1 [DDI, 2′,3′-dideoxyinosine]
Biological cut-off (fold resistance) (HIV-1 [3]): 2.0

O=C1Nc2ccc(Cl)cc2[C@@](C#CC2CC2)(C(F)(F)F)O1 [DMP266]
Biological cut-off (fold resistance) (HIV-1 [3]): 6.0

CC(C)Nc1cccnc1N1CCN(C(=O)c2cc3cc(NS(C)(=O)=O)ccc3[nH]2)CC1 [Delavirdine]
Biological cut-off (fold resistance) (HIV-1 [3]): 10.0

CC(C)(C)NC(=O)[C@@H]1CN(Cc2cccnc2)CCN1C[C@@H](O)C[C@@H](Cc1ccccc1)C(=O)N[C@H]1c2ccccc2C[C@H]1O [Indinavir]
Biological cut-off (fold resistance) (HIV-1 [3]): 3.0

Cc1cccc(C)c1OCC(=O)N[C@@H](Cc1ccccc1)[C@@H](O)C[C@H](Cc1ccccc1)NC(=O)[C@H](C(C)C)N1CCCNC1=O [Lopinavir]
Biological cut-off (fold resistance) (HIV-1 [3]): 2.5

Cc1c(O)cccc1C(=O)N[C@@H](CSc1ccccc1)[C@H](O)CN1C[C@H]2CCCC[C@H]2C[C@H]1C(=O)NC(C)(C)C [Nelfinavir]
Biological cut-off (fold resistance) (HIV-1 [3]): 4.0

Cc1ccnc2c1NC(=O)c1cccnc1N2C1CC1 [Nevirapine]
Biological cut-off (fold resistance) (HIV-1 [3]): 8.0

CC(C)c1nc(CN(C)C(=O)N[C@H](C(=O)N[C@@H](Cc2ccccc2)C[C@H](O)[C@H](Cc2ccccc2)NC(=O)OCc2cncs2)C(C)C)cs1 [Ritonavir]
Biological cut-off (fold resistance) (HIV-1 [3]): 3.5

CC(C)(C)NC(=O)[C@@H]1C[C@@H]2CCCC[C@@H]2CN1C[C@@H](O)[C@H](Cc1ccccc1)NC(=O)[C@H](CC(N)=O)NC(=O)c1ccc2ccccc2n1 [Saquinavir]
Biological cut-off (fold resistance) (HIV-1 [3]): 2.5

CC(C)CN(C[C@@H](O)[C@H](Cc1ccccc1)NC(=O)O[C@H]1CCOC1)S(=O)(=O)c1ccc(N)cc1 [VX-478]
Effect of mutation on susceptibility in vitro (HIV-1 [2]; HIV-1 mutation N88S): hypersensitivity
Biological cut-off (fold resistance) (HIV-1 [3]): 2.0
